Laboratory results as given in patent publication US10875856B2, “CPAP-tubulin module” (UNIVERSITAET ZU KOELN, priority 2015, dated 2020).
Entries after “also recorded” stand apart in the source; their conditions may differ. Read-outs that look alike come from different tables or passages of the source. Blank lines part the entries; values can stand above or below the molecule they belong to.

Experiments:
[1] = test system: CPAP-tubulin interaction; assay: AlphaScreen assay of inhibition of the CPAP-tubulin interaction (normalized AlphaScreen signal; triplicate determination; TruHit kit as counter-control); format: binding
Text: FIGS. 1 to 4, 19 and 20 show normalized AlphaScreen signal for conventional tubulin binders Vinblastin (FIG. 1), Paclitaxel (FIG. 2), Docetaxel (FIG. 3) Colchicin (FIG. 4), Bactallin III (FIG. 19) and Taxol (FIG. 20).
Most tubulin-binding agents act on spindle microtubules and thus prevent mitosis nonspecifically.
The Error bars in FIGS. 1 to 16, 19 and 20 indicate data from a triplicate determination. The TruHit Kit captures possible effects on AlphaScreen assay technology.

[2] = test system: extra-centrosomes in cancer cells; assay: cell-based assay of centrosome declustering activity
Procedure: (§1) To evaluate the effect of compound (A) in cancer cells, a spectrum of breast cancer-(BT549, MDA-MB-231), lung cancer-(TKI-sensitive PC9, TKI-resistant H1975^T790M or HCC827 with C-met amplification) and hepatocellular carcinoma-(POP10) cells was treated with compound (A) for 24 h.

[3] = test system: BT549, MDA-MB-231, PC9, H1975T790M, HCC827, POP10 cells; assay: cancer cell proliferation, spectrum of cancer cell lines; format: cell-based; conditions: range over BT549, MDA-MB-231, PC9, H1975T790M
Procedure: as §1
The effects of compound (B) on a spectrum of breast cancer-(BT549, MDA-MB-231),NSCLC-(PC9, TM-resistant H1975T790M, HCC827-GR) and hepatocellular-carcinoma-(POP10)-cells were tested by treatment with compound (B) for 72 hrs.

[4] = test system: MCF10A (+Dox, extra centrosomes) and HCC827-GR cells; assay: live imaging of extra-centrosome cells; format: cell-based, human
[5] = test system: 3D-organotypic cultures of H1975T790M, HCC827-GR and A549; assay: 3D organotypic culture invasion model; format: cell-based
Text: Further, to test whether preventing CPAP-tubulin interaction could impair cancer cell invasiveness, a three-dimensional (3D) organotypic culture model for cancer cells was adapted that recapitulates many aspects of human epithelial cancer tissue architecture.

[6] = test system: subcutaneous human prostate tumor cell (PC3) xenografts; assay: PC3 xenograft in nude mice; format: in vivo
Procedure: To evaluate the anti-tumor activity of compound (A), compound (A) was delivered to nude mice bearing subcutaneous human prostate tumor cell (PC3) xenografts. Compound (A) was administered (10 mg/kg) by oral gavage once per day and the rate of tumor growth was monitored. Compared to vehicle treated controls, it was noticed a reduction in tumor growth rate in compound-(A)-treated mice. Importantly, the anti-tumor activity of compound (A) could be observed as determined by reduced tumor volume with respect to control at day 10.
(§2) To evaluate if compound (B) has anti-tumor activity in vivo, nude mice bearing subcutaneous human prostate (PC3) and breast (MDA-MB-231) tumor xenografts were used.
(§3) In each case, two groups of mice bearing tumor volume >100 mm^3 were used. Compound (B) (10 or 20 mg, Kg-1/day) by oral gavage was delivered. At the end of treatment, we measured the total tumor volume of compound (B)-treated groups and compared with vehicle-treated controls.

[7] = test system: subcutaneous human breast (MDA-MB-231) tumor xenografts; assay: MDA-MB-231 xenograft in nude mice; format: in vivo
Procedure: as §2, §3

[8] = stability; format: physicochemical
[9] = solubility; format: physicochemical
[10] = test system: Cep152, PCNT and CDK5RAP2 recruitment to interphase centrosomes of MCF10A cells; assay: PCM protein recruitment to interphase centrosomes (imaging, heat map intensity); format: cell-based, human; conditions: versus vehicle
Text: Mechanisms by which compound (B) activates extra centrosomes to nucleate enhanced microtubules were identified. Peri-centriolar material (PCM) recruitment to centrosomes is required for microtubule nucleation.
To test this, we estimated the amounts of Cep152, PCNT and CDK5RAP2 recruitment to interphase centrosomes of compound (B)—treated MCF10A cells.

[11] = test system: CPAP-tubulin interaction in MCF10A cells; assay: immunopurification of CPAP complexes from treated cells; format: cell-based, human; conditions: CPAP complexes from cytoplasmic extracts of MCF10A
Procedure: Finally, it was tested if compound (B) could prevent CPAP-tubulin interaction in cells and simultaneously enhance the ability of CPAP to bind its interacting proteins. CPAP complexes from cytoplasmic extracts of compound (B)-treated MCF10A cells were immunopurified.

[12] = test system: two-centrosomes containing cells; assay: live imaging for microtubule toxic effect; format: cell-based
Procedure: Except compound (B), neither of the tested tubulin binders could perturb CPAP-tubulin interaction, enhance PCM recruitment to interphase centrosomes and prevent extra centrosomes from clustering. […] In addition, to rule out the possible microtubule toxic effect of compound (B), live imaging experiments were performed.

[13] = test system: H827 cells; assay: cell proliferation with erlotinib, H827; format: cell-based
[14] = test system: A549 cells; assay: cell proliferation with erlotinib, A549; format: cell-based
[15] = test system: Plk-4-inducible MCF10A cells; assay: tolerability and cellular toxicity in Plk-4-inducible MCF10A; format: cell-based, human
Text: Building on Example 1, a proof-of-principle experiment was established in which lentiviral-mediated transduction of constitutive or doxycycline-inducible CPAP^F375A that cannot interact with tubulin (hereafter CPAPΔT) was introduced into non-transformed human mammary epithelial MCF10A cells. These MCF10A cells are engineered to regulate centrosome amplification via doxycycline-inducible overexpression of Polo-Like-Kinase (PLK4). Introducing CPAPΔT prematurely activated Plk4-induced extra-centrosomes in interphase to nucleate microtubules and prevented them from clustering.
Since compound (A) is a tubulin binder, its tolerability and cellular toxicity in comparison to taxol in Plk-4-inducible MCF10A was evaluated.

[16] = test system: cancer cells; assay: 24 h EdU pulse labeling experiment; format: cell-based; conditions: 24 h pulse labeling
[17] = test system: MDA-MB-231 cells expressing tubulin-GFP; assay: live cell experiments, MDA-MB-231 tubulin-GFP; format: cell-based

SMILES: N#Cc1c(Cl)ncc2cc3ccccc3nc12 [Compound D]
IC50 ([1]; values in nM): 23 nM

SMILES: Nc1n[nH]c2ncc3cc4ccccc4nc3c12 [Compound F]
IC50 ([1]; values given in µM): 6940 nM

SMILES: N#Cc1c(Sc2ccccc2)ncc2cc3ccccc3nc12 [Compound G]
IC50 ([1]; values in nM): 211 nM

IC50 ([3]; HCC827-GR, POP10, treated 72 hrs): 0.86 to 2.9 µM
stability relative to compound (A) [8]: increased
solubility relative to compound (A) [9]: increased
SMILES: COc1ncc2cc3ccccc3nc2c1C#N [compound (B), 3-Methoxybenzo[b][1,6]naphthyridine-4-carbonitrile]
centrosome declustering activity (preventing extra centrosomes from clustering) ([2]; cancer cells): potent; also recorded: prevented clustering of extra centrosomes
mitosis and cell fate in live imaging [4]: prolonged mitosis with an apparent apoptosis
prevention of actin-positive invasive protrusions from 3D spheres ([5]; 5 μM, H1975T790M, HCC827-GR, A549 organoids): sufficient to prevent
cell death in organoids ([5]; H1975T790M organoids): activated caspase-positive cells
organoid growth ([5]; treated organoids): did not grow further from its original size
tumor growth rate versus vehicle ([6]; PC3, 10 or 20 mg/kg/day oral gavage): significant reduction
tumor volume with respect to control ([6]; PC3, after 10 days): reduced
body weights of treated animals ([6]; PC3 model, 10 or 20 mg/kg/day oral): did not change
tumor growth rate versus vehicle ([7]; MDA-MB-231, 10 or 20 mg/kg/day oral gavage): significant reduction
tumor volume with respect to control ([7]; MDA-MB-231, after 31 days): reduced
body weights of treated animals ([7]; MDA-MB-231 model, 10 or 20 mg/kg/day oral): did not change
recruitment of PCM proteins (Cep152, PCNT, CDK5RAP2) to interphase centrosomes [10]: enhanced amounts
CPAP-tubulin interaction in cells [11]: specifically perturbs
concentration not affecting microtubule dynamics, cell cycle progression or mitotic spindle assembly [12]: up to 5 μM
concentration not preventing formation of bipolar mitotic spindles [12]: up to 8 μM

SMILES: CC(=O)O[C@H]1C(=O)[C@@]2(C)[C@H]([C@H](OC(=O)c3ccccc3)[C@]3(O)C[C@H](OC(=O)[C@H](O)[C@@H](NC(=O)c4ccccc4)c4ccccc4)C(C)=C1C3(C)C)[C@]1(OC(C)=O)CO[C@@H]1C[C@@H]2O [Paclitaxel, reference compound]
IC50 ([1]; values given in µM): 52600 nM

SMILES: CCC(CO)Nc1ncc2cc3ccccc3nc2c1C#N (racemic) [Racemic mixture of compounds C and C‘]
IC50 ([1]; values given in µM): 1390 nM

SMILES: N#Cc1c(NCc2ccccc2)ncc2cc3ccccc3nc12 [Compound E]
IC50 ([1]; values given in µM): 1210 nM

SMILES: C#Cc1cccc(Nc2ncnc3cc(OCCOC)c(OCCOC)cc23)c1 [erlotinib]
centrosome clustering in H827 ([2]; H827 cells, erlotinib treatment): does not affect centrosome clustering
IC50 ([13]; H827, combined with 750 nM compound (A), read-out: IC50 of erlotinib in combinatorial treatment): 0.03 µM
IC50 ([13]; H827, single agent, read-out: IC50 of cell proliferation): 6.9 µM
IC50 ([14]; A549, single agent, read-out: IC50 of cell proliferation): 5.07 µM
IC50 ([14]; Homo sapiens, A549, A549, addition of 1.5 μM compound (A), read-out: IC50 of erlotinib in combinatorial treatment): 0.5 µM
IC50 ([14]; Homo sapiens, A549, A549, single agent, read-out: IC50 of cell proliferation): 5 µM
prevention of formation of invasive protrusions ([5]; 3D organotypic cultures of H1975 and A549): not

SMILES: N#Cc1c(SCC(=O)Nc2ccccc2)ncc2cc3ccccc3nc12 [Compound I]
IC50 ([1]; values given in µM): 1760 nM

SMILES: N#Cc1c(N2CCCCC2)ncc2cc3ccccc3nc12 [Compound L]
IC50 ([1]; values given in µM): 1880 nM

SMILES: CC(=O)O[C@H]1C(=O)[C@@]2(C)[C@H]([C@H](OC(=O)c3ccccc3)[C@]3(O)C[C@H](OC(=O)[C@H](O)[C@@H](NC(=O)c4ccccc4)c4ccccc4)C(C)=C1C3(C)C)[C@]1(OC(C)=O)CO[C@@H]1C[C@@H]2O [taxol, reference compound]
MCF10A cell proliferation regardless of extra centrosomes ([15]; 100 nM): non-selectively prevented
centrosome clustering in MCF10A ([15]; taxol treatment): did not affect centrosome clustering
concentration that collapsed the spindles [12]: 30 nM

SMILES: N#Cc1c(N2CCCCCC2)ncc2cc3ccccc3nc12 [Compound J]
IC50 ([1]; values given in µM): 6320 nM

SMILES: CCCCNc1ncc2cc3ccccc3nc2c1C#N [compound (A)]
concentration causing declustering of extra-centrosomes in interphase ([2]; BT549 cells, 24 h treatment): 500 nM
IC50 ([3]; HCC827, POP10, treated 24 h): 0.86 to 2.9 µM
number of cancer cells with EdU incorporation [16]: reduced number
mitosis and cell fate in live cells [17]: prolonged mitosis with eventual apoptosis
proliferation of MCF10A cells that harbor extra centrosomes [15]: specifically inhibited
concentration tolerated without defect in bipolar mitotic spindles ([15]; MCF10A cells with two centrosomes): up to 10 μM
tumor growth rate versus vehicle ([6]; PC3, 10 mg/kg oral gavage once per day): reduction
tumor volume with respect to control ([6]; PC3, 10 mg/kg oral gavage once per day, day 10): reduced
